Experimental findings from ChEMBL document CHEMBL1811878, “Heteroatom-substituted analogues of orphan nuclear receptor small heterodimer partner ligand and apoptosis inducer (E)-4-[3-(1-Adamantyl)-4-hydroxyphenyl]-3-chlorocinnamic acid” (J Med Chem, 2011) are described below.

Values after ≈ are worked out from the molar mass of the structure shown. Active and inactive are the calls of the source. The calls are words filed in the database; no cut-off is given here.

For orientation: IC50 means the concentration needed to halve the response being measured. In general, solubility refers to how much of the substance goes into solution per volume.

The nature of data set [1]: Induction of apoptosis in retinoid-resistant p53 null human HL60R cells assessed as DNA fragmentation at 1 uM after 24 hrs by acridine orange staining method. It counts as functional.
Data set [2] is described as follows: Induction of apoptosis in retinoid-resistant p53 null human HL60R cells assessed as DNA fragmentation at 0.1 uM after 24 hrs by acridine orange staining method. It counts as functional.
Data set [3] concerns KG-1. Nature of the data set: Growth inhibition in human KG1 cells expressing p53 gene at 5 uM after 48 hrs by MTT assay. Particulars: KG-1, 48 h, read-out: GI. The class given is functional.
Data set [4] deals with HT-29. Nature of the data set: Induction of apoptosis in human HT-29 cells assessed as decrease in ATP level after 72 hrs by luminescence assay. It counts as functional, cell-based.
The test system of data set [5] is PC-3. Nature of the data set: Induction of apoptosis in human PC3 cells assessed as decrease in ATP level at 10 uM after 72 hrs by luminescence assay. The class given is functional, cell-based.
Data set [6] has as its system HT-29. Nature of the data set: Induction of apoptosis in human HT-29 cells assessed as decrease in ATP level at 10 uM after 72 hrs by luminescence assay. It counts as functional.
The test system of data set [7] is A549. Nature of the data set: Induction of apoptosis in human A549 cells assessed as decrease in ATP level after 72 hrs by luminescence assay. It counts as functional, cell-based.
Data set [8] can be described thus: Induction of apoptosis in mouse MMTV-Wnt-1 cells assessed as cell viability after 72 hrs by DAPI staining based cell counting. It counts as functional.
Data set [9] deals with KG-1. Nature of the data set: Growth inhibition in human KG1 cells expressing p53 gene at 1 uM after 48 hrs by MTT assay. The class given is functional. The settings on record: KG-1, 48 h, read-out: GI.
Data set [10] relates to KG-1. Nature of the data set: Induction of apoptosis in human KG1 cells assessed as DNA fragmentation at 5 uM after 48 hrs by acridine orange staining method. It counts as functional.
For data set [11], the system named is KG-1. Nature of the data set: Induction of apoptosis in human KG1 cells expressing p53 gene assessed as DNA fragmentation at 1 uM after 48 hrs by acridine orange staining method. It counts as functional.
Data set [12] concerns PC-3. Nature of the data set: Induction of apoptosis in human PC3 cells assessed as decrease in ATP level after 72 hrs by luminescence assay. It counts as functional, cell-based.
Data set [13] has as its system Mus musculus. Nature of the data set: Toxicity in ICR-SCIDS mouse assessed as decrease in body weight at 20 mg/kg, iv qd administered at a 25% increment in dose each day for 7 days measured on day 7 relative to body weight on day 1. Particulars: in vivo, 168 h. It counts as organism-based. More on the design: dose 20 mg/kg, route intravenous; scale not given: the % may be the effect or the level left.

Data set [14] relates to PC-3. Nature of the data set: Induction of apoptosis in human PC3 cells assessed as decrease in ATP level at 5 uM after 72 hrs by luminescence assay. The arrangement: scale not given: the % may be the effect or the level left. It counts as functional.
In data set [15] the test system is Mus musculus. Nature of the data set: Toxicity in ICR-SCIDS mouse assessed as increase in body weight at 20 mg/kg, iv qd administered at a 25% increment in dose each day for 7 days measured on day 4. The class given is organism-based. The arrangement: dose 20 mg/kg, route intravenous. Particulars: in vivo, 168 h.
In data set [16] the test system is MDA-MB-231. Nature of the data set: Growth inhibition of retinoid-resistant human MDA-MB-231 cells expressing p53 and ERbeta gene at 1 uM after 24 hrs by MTT assay. It counts as functional. The settings on record: MDA-MB-231, 24 h, read-out: GI. Background: Formazan colour is commonly taken as a measure of viable cells.
Data set [17] deals with Mus musculus. Nature of the data set: Toxicity in ICR-SCIDS mouse assessed as increase in body weight at 20 mg/kg, iv qd administered at a 25% increment in dose each day for 7 days measured on day 1. The arrangement: dose 20 mg/kg, route intravenous. The settings on record: in vivo, 168 h. It counts as organism-based.
Data set [18] in a line: Aqueous solubility of the compound in PBS at pH 7.2 by UV spectrophotometric analysis. It counts as physicochemical. Particulars: buffer.
Data set [19] relates to MDA-MB-231. Nature of the data set: Induction of apoptosis in retinoid-resistant human MDA-MB-231 cells expressing p53 and ERbeta gene assessed as DNA fragmentation at 1 uM after 24 hrs by acridine orange staining method. It counts as functional.
Data set [20] concerns A549. Nature of the data set: Induction of apoptosis in human A549 cells assessed as decrease in ATP level at 5 uM after 72 hrs by luminescence assay. The class given is functional. The arrangement: scale not given: the % may be the effect or the level left.
For data set [21], the system named is MDA-MB-231. Nature of the data set: Induction of apoptosis in retinoid-resistant human MDA-MB-231 cells expressing p53 and Erbeta gene assessed as DNA fragmentation at 0.1 to 1 uM after 48 hrs by acridine orange staining method. It counts as functional, cell-based.
Data set [22] has as its system MDA-MB-231. Nature of the data set: Induction of apoptosis in retinoid-resistant human MDA-MB-231 cells expressing p53 and ERbeta gene assessed as DNA fragmentation at 1 uM after 48 hrs by acridine orange staining method. The class given is functional.
For data set [23], the system named is HT-29. Nature of the data set: Induction of apoptosis in human HT-29 cells assessed as decrease in ATP level at 10 uM after 72 hrs by luminescence assay relative to control. It counts as functional. More on the design: scale not given: the % may be the effect or the level left.
In data set [24] the test system is Mus musculus. Nature of the data set: Toxicity in ICR-SCIDS mouse assessed as decrease in body weight at 20 mg/kg, iv qd administered at a 25% increment in dose each day for 7 days measured on day 8 relative to control. It counts as organism-based. The arrangement: dose 20 mg/kg, route intravenous; scale not given: the % may be the effect or the level left. The settings on record: in vivo, 168 h.

Data set [25] can be described thus: Aqueous solubility of the compound in water at pH 5 by UV spectrophotometric analysis. It counts as physicochemical.
For data set [26], the system named is HT-29. Nature of the data set: Induction of apoptosis in human HT-29 cells assessed as decrease in ATP level at 5 uM after 72 hrs by luminescence assay. The class given is functional. The arrangement: scale not given: the % may be the effect or the level left.
Data set [27] relates to MDA-MB-231. Nature of the data set: Growth inhibition of retinoid-resistant human MDA-MB-231 cells expressing p53 and Erbeta gene at 0.1 to 1 uM after 48 hrs by MTT assay. It counts as functional, cell-based.
Data set [28] has as its system MDA-MB-231. Nature of the data set: Growth inhibition of retinoid-resistant human MDA-MB-231 cells expressing p53 and ERbeta gene at 1 uM after 48 hrs by MTT assay. It counts as functional. The settings on record: MDA-MB-231, 48 h, read-out: GI.
The test system of data set [29] is A549. Nature of the data set: Induction of apoptosis in human A549 cells assessed as decrease in ATP level at 10 uM after 72 hrs by luminescence assay. The class given is functional, cell-based.

With `O=C(O)c1ccc2c(Cl)c(-c3ccc(O)c(C45CC6CC(CC(C6)C4)C5)c3)ccc2c1`, the results for the Activity in [1] and in data set [2] were 94% and 62%, respectively.

Take `O=C(O)/C=C/c1cnc(-c2ccc(O)c(C34CC5CC(CC(C5)C3)C4)c2)cn1`: in the data set on KG-1 [3], the inhibition of growth at 5 µM turned out to be 61%. Moreover, the Activity result was “Dose-dependent effect” in the data set with HT-29 [4]; “Dose-dependent effect” in the data set with A549 [7]; 50% in the data set with KG-1 [10]; 39% in the data set with KG-1 [11]; “Dose-dependent effect” in the data set on PC-3 [12]. Moreover, the outcome with PC-3 [5] was Active. Also, the outcome with HT-29 [6] was inactive. In addition, the 50% inhibitory concentration (IC50) in data set [8] stood at 316 nM. Further, the inhibition of growth at 1 µM with KG-1 [9] was found to be 44%.

`O=C(O)/C=C/c1ccc(-c2ccc(O)c(C34CC5CC(CC(C5)C3)C4)c2)c(Cl)c1`: the Activity in the data set with Mus musculus [13] is 90.4%; in the data set on PC-3 [14], 30%; in the data set with Mus musculus [15] it was 9.3%; in the data set on HT-29 [4] it was “Dose-dependent effect”; with Mus musculus [17], 9.3%; in the data set with HT-29 [6], “>=40%”. Also, the Activity entry was “Dose-dependent effect” in the data set with A549 [7]; 3% in the data set with MDA-MB-231 [19]; 30% in the data set on A549 [20]; 7% with MDA-MB-231 [22]; 94% in data set [1]; less than 60% in the data set with HT-29 [23]. Besides, the Activity with Mus musculus [24] was 62.7%; in the data set on HT-29 [26], 30%; in data set [2], 51%; in the data set with KG-1 [10], 55%; in the data set on KG-1 [11], 30%; in the data set on PC-3 [12] it was “Dose-dependent effect”. Also, in the data set with KG-1 [3], the inhibition of growth at 5 µM is 67%. Moreover, the inhibition of growth at 1 µM came out at 8% with MDA-MB-231 [16], 44% in the data set with KG-1 [9] and 43% with MDA-MB-231 [28]. Besides, the result with PC-3 [5] and in the data set on A549 [29] was Active. Further, the solubility result is “soluble” in data set [18] and 4.5 µM (≈ 1.84 µg/mL) in data set [25]. Moreover, in the data set on MDA-MB-231 [21], the outcome was inactive. Besides, the half-inhibitory concentration (IC50) in data set [8] turned out to be 281 nM. For the same molecule, the “growth inhibition (GI)” value with MDA-MB-231 [27] is “inactive”.
